Calls of active or inactive are those of the source. No rule for the calls is given here.

The test system of this data set is CCRIS mutagenicity, Ames/micronucleus/aberration tests. Kind of data set: CCRIS mutagenicity studies.
The mark [1] stands for this setting: Test System: AMES SALMONELLA TYPHIMURIUM, Strain/Indicator: TA98, Metabolic Activation: NONE, Method: PREINCUBATION
Setting [2] is: Test System: AMES SALMONELLA TYPHIMURIUM, Strain/Indicator: TA100, Metabolic Activation: NONE, Method: PREINCUBATION
The mark [3] stands for this setting: Test System: AMES SALMONELLA TYPHIMURIUM, Strain/Indicator: TA98, Metabolic Activation: NONE, Method: STANDARD PLATE.
The mark [4] stands for this setting: Test System: AMES SALMONELLA TYPHIMURIUM, Strain/Indicator: TA98, Metabolic Activation: S-9, Method: STANDARD PLATE.
[5] abbreviates: Test System: AMES SALMONELLA TYPHIMURIUM, Strain/Indicator: TA100, Metabolic Activation: NONE, Method: STANDARD PLATE.
Where [6] appears, read: Test System: AMES SALMONELLA TYPHIMURIUM, Strain/Indicator: TA100, Metabolic Activation: S-9, Method: STANDARD PLATE.
The mark [7] stands for this setting: Test System: AMES SALMONELLA TYPHIMURIUM, Strain/Indicator: TA1535, Metabolic Activation: NONE, Method: STANDARD PLATE.
[8] abbreviates: Test System: AMES SALMONELLA TYPHIMURIUM, Strain/Indicator: TA1535, Metabolic Activation: S-9, Method: STANDARD PLATE.
Where [9] appears, read: Test System: AMES SALMONELLA TYPHIMURIUM, Strain/Indicator: TA98, Metabolic Activation: RAT, LIVER, S-9, AROCLOR 1254, Method: STANDARD PLATE.
Setting [10] is: Test System: AMES SALMONELLA TYPHIMURIUM, Strain/Indicator: TA100, Metabolic Activation: RAT, LIVER, S-9, AROCLOR 1254, Method: STANDARD PLATE.

Regarding `Oc1ccc2cc(SSc3ccc4cc(O)ccc4c3)ccc2c1`, the mutagenic call reads like this: (Test System: AMES SALMONELLA TYPHIMURIUM, Strain/Indicator: TA97, Metabolic Activation: HAMSTER, LIVER, S-9, AROCLOR 1254 (10 OR 30%), Method: PREINCUBATION) “inactive; negative”; (Test System: AMES SALMONELLA TYPHIMURIUM, Strain/Indicator: TA97, Metabolic Activation: NONE, Method: PREINCUBATION) “inactive; negative”; (Test System: AMES SALMONELLA TYPHIMURIUM, Strain/Indicator: TA97, Metabolic Activation: RAT, LIVER, S-9, AROCLOR 1254 (10 OR 30%), Method: PREINCUBATION) “inactive; negative”; (Test System: AMES SALMONELLA TYPHIMURIUM, Strain/Indicator: TA98, Metabolic Activation: HAMSTER, LIVER, S-9, AROCLOR 1254 (10 OR 30%), Method: PREINCUBATION) “inactive; negative”; under setting [1], “inactive; negative”; (Test System: AMES SALMONELLA TYPHIMURIUM, Strain/Indicator: TA98, Metabolic Activation: RAT, LIVER, S-9, AROCLOR 1254 (5 OR 30%), Method: PREINCUBATION) “inactive; negative”. In addition, the mutagenic call was “inactive; negative” (Test System: AMES SALMONELLA TYPHIMURIUM, Strain/Indicator: TA98, Metabolic Activation: RAT, LIVER, S-9, AROCLOR 1254 (10%), Method: PREINCUBATION); “inactive; negative” (Test System: AMES SALMONELLA TYPHIMURIUM, Strain/Indicator: TA100, Metabolic Activation: HAMSTER, LIVER, S-9, AROCLOR 1254 (10 OR 30%), Method: PREINCUBATION); “inactive; negative” under setting [2]; “inactive; negative” (Test System: AMES SALMONELLA TYPHIMURIUM, Strain/Indicator: TA100, Metabolic Activation: RAT, LIVER, S-9, AROCLOR 1254 (5 OR 30%), Method: PREINCUBATION); “inactive; negative” (Test System: AMES SALMONELLA TYPHIMURIUM, Strain/Indicator: TA100, Metabolic Activation: RAT, LIVER, S-9, AROCLOR 1254 (10%), Method: PREINCUBATION); “inactive; negative” (Test System: AMES SALMONELLA TYPHIMURIUM, Strain/Indicator: TA102, Metabolic Activation: HAMSTER, LIVER, S-9, AROCLOR 1254 (10 OR 30%), Method: PREINCUBATION). The mutagenic call by setting is: (Test System: AMES SALMONELLA TYPHIMURIUM, Strain/Indicator: TA102, Metabolic Activation: NONE, Method: PREINCUBATION) “inactive; negative”; (Test System: AMES SALMONELLA TYPHIMURIUM, Strain/Indicator: TA102, Metabolic Activation: RAT, LIVER, S-9, AROCLOR 1254 (10 OR 30%), Method: PREINCUBATION) “inactive; negative”; (Test System: AMES SALMONELLA TYPHIMURIUM, Strain/Indicator: TA1535, Metabolic Activation: RAT, LIVER, S-9, AROCLOR 1254 (5, 10 OR 30%), Method: PREINCUBATION) “inactive; negative”; (Test System: AMES SALMONELLA TYPHIMURIUM, Strain/Indicator: TA1538, Metabolic Activation: RAT, LIVER, S-9, AROCLOR 1254 (5, 10 OR 30%), Method: PREINCUBATION) “inactive; negative”.
Take `COC(=O)c1cc(OC)c2c(c1-c1c(C(=O)OC)cc(OC)c3c1OCO3)OCO2`: the mutagenic call runs as follows: under setting [3], “inactive; negative”; under setting [4], “inactive; negative”; under setting [5], “inactive; negative”; under setting [6], “inactive; negative”; under setting [7], “inactive; negative”; under setting [8], “inactive; negative”. The mutagenic call by setting is: (Test System: AMES SALMONELLA TYPHIMURIUM, Strain/Indicator: TA1537, Metabolic Activation: NONE, Method: STANDARD PLATE) “inactive; negative”; (Test System: AMES SALMONELLA TYPHIMURIUM, Strain/Indicator: TA1537, Metabolic Activation: S-9, Method: STANDARD PLATE) “inactive; negative”.
With `BrCc1ccccc1CBr`, the mutagenic call under setting [3] is “inactive; negative” and the mutagenic call under setting [5] was “inactive; negative”.
For the compound `O=C(c1ccc(-c2ccccc2)cc1)C1OC1c1ccccc1` (centres undefined), the mutagenic call reads like this: under setting [3], “inactive; negative”; under setting [9], “inactive; negative”; under setting [5], “inactive; negative”; under setting [10], “inactive; negative”.
In the case of `Cn1c2ccc3ccccc3c2c2c3ccccc3ccc21`, the mutagenic call by setting is: under setting [10], “active; positive”; (Test System: AMES SALMONELLA TYPHIMURIUM, Strain/Indicator: TM677, Metabolic Activation: RAT, LIVER, S-9, 3-METHYLCHOLANTHRENE (1%), Method: PREINCUBATION) “inactive; negative”; (Test System: AMES SALMONELLA TYPHIMURIUM, Strain/Indicator: TM677, Metabolic Activation: RAT, LIVER, S-9, 3-METHYLCHOLANTHRENE (10%), Method: PREINCUBATION) “inactive; negative”; (Test System: AMES SALMONELLA TYPHIMURIUM, Strain/Indicator: TM677, Metabolic Activation: RAT, LIVER, S-9, AROCLOR 1254 (10%), Method: PREINCUBATION) “inactive; negative”.
Take `Nc1ccc2cc(S(=O)(=O)O)c(N=Nc3ccc(N=Nc4ccccc4)cc3OCCO)c(O)c2c1`: the mutagenic call under setting [3] is “inactive; negative”; the mutagenic call under setting [9] is “active; positive”; the mutagenic call under setting [5] was “inactive; negative”; the mutagenic call under setting [10] is “active; positive”; the mutagenic call (Test System: AMES SALMONELLA TYPHIMURIUM, Strain/Indicator: TA1538, Metabolic Activation: NONE, Method: STANDARD PLATE) was “inactive; negative”; the mutagenic call (Test System: AMES SALMONELLA TYPHIMURIUM, Strain/Indicator: TA1538, Metabolic Activation: RAT, LIVER, S-9, AROCLOR 1254, Method: STANDARD PLATE) was “active; positive”.
For `CCOP(=S)(OCC)SCSCC`, the mutagenic call by setting is: (Test System: AMES SALMONELLA TYPHIMURIUM, Strain/Indicator: TA97A, Metabolic Activation: NONE, Method: STANDARD PLATE) “inactive; negative”; (Test System: AMES SALMONELLA TYPHIMURIUM, Strain/Indicator: TA97A, Metabolic Activation: PLANT, HOMOGENATE, S-14, Method: STANDARD PLATE) “inactive; negative”; (Test System: AMES SALMONELLA TYPHIMURIUM, Strain/Indicator: TA97A, Metabolic Activation: S-9, Method: STANDARD PLATE) “inactive; negative”; under setting [1], “inactive; negative”; under setting [3], “inactive; negative”; (Test System: AMES SALMONELLA TYPHIMURIUM, Strain/Indicator: TA98, Metabolic Activation: PLANT, HOMOGENATE, S-14, Method: STANDARD PLATE) “inactive; negative”. For the same compound, the mutagenic call under setting [4] was “inactive; negative”; the mutagenic call under setting [2] was “inactive; negative”; the mutagenic call under setting [5] was “inactive; negative”; the mutagenic call (Test System: AMES SALMONELLA TYPHIMURIUM, Strain/Indicator: TA100, Metabolic Activation: PLANT, HOMOGENATE, S-14, Method: STANDARD PLATE) was “inactive; negative”; the mutagenic call under setting [6] was “inactive; negative”; the mutagenic call under setting [7] is “inactive; negative”. Moreover, the mutagenic call was “inactive; negative” (Test System: AMES SALMONELLA TYPHIMURIUM, Strain/Indicator: TA1535, Metabolic Activation: PLANT, HOMOGENATE, S-14, Method: STANDARD PLATE) and “inactive; negative” under setting [8].
`Cc1cc(N=Nc2ccccc2C)c(N)cc1N`: the mutagenic call (Test System: AMES SALMONELLA TYPHIMURIUM, Strain/Indicator: TA100, Metabolic Activation: HUMAN, LIVER, S-9, Method: PREINCUBATION) is “inactive; negative”; the mutagenic call (Test System: AMES SALMONELLA TYPHIMURIUM, Strain/Indicator: TA100, Metabolic Activation: RAT, LIVER, S-9, BETA-NAPHTHOFLAVONE, Method: PREINCUBATION) is “active; positive”; the mutagenic call (Test System: AMES SALMONELLA TYPHIMURIUM, Strain/Indicator: TA100, Metabolic Activation: RAT, LIVER, S-9, PHENOBARBITAL, Method: PREINCUBATION) was “active; positive”; the mutagenic call (Test System: AMES SALMONELLA TYPHIMURIUM, Strain/Indicator: TA100, Metabolic Activation: RAT, LIVER, S-9, Method: PREINCUBATION) is “active; positive”; the mutagenic call (Test System: UDS RODENT HEPATOCYTES, Strain/Indicator: THY INCORP, Metabolic Activation: NONE, Method: AUTORADIOGRAPHY) is “active; positive”.

Source of the values: PubChem BioAssay AID1259407 (Chemical Carcinogenesis Research Information System (CCRIS), 2018).
